Test results reported in patent US20250257041A1, “INDUCERS OF INTEGRATED STRESS RESPONSE TO TREAT CANCER” (The Board of Regents of The University of Texas System, priority 2022, published 2025).

These compounds were tested on HCT116 WT (assay: Proliferation of HCT116 colorectal cell line, Cell TiterGlo). Conditions: Homo sapiens, HCT-116, read-out: HCT116 IC50 (uM) HCT116 WT.
Type: cell-based, human
Method: Briefly, compounds were tested for their effect on proliferation of HCT116 colorectal cell lines using Cell TiterGlo (Promega). Each compound was tested in a 10-point dose response experiment in triplicate. Multiple values in the column titled HCT116 WT reflect separate independent experiments. The three columns titled “HCT116 WT (repeat)”, “HCT116-CGN2KO” and “HCT116 WT+ISRIB” provide data for selected compounds that were tested simultaneously under three conditions. The HCT116 WT column lists IC50 against the wild type HCT116 colorectal cancer cell line. The HCT116-CGN2KO lists IC50 data for cells in which one component of the integrated stress response, GCN2, has been knocked out using CRISPR technology.

Row | SMILES | IC50 [µM]
1 | CSc1cccc(C(=O)Nc2cc(-c3ccc(NC(=O)c4ccccc4)cc3)nn2C)c1 [SW389160, N-(3-(4-Benzamidophenyl)-1-methyl-1H-pyrazol-5-yl)-3-(methylthio)benzamide] | 0.226

Same assay, conditions: Homo sapiens, HCT-116, read-out: HCT116 IC50 (uM) HCT116 WT (repeat)

Row | SMILES | IC50 [µM]
2 | CSc1cccc(C(=O)Nc2cc(-c3ccc(NC(=O)c4ccccc4)cc3)nn2C)c1 [SW389160, N-(3-(4-Benzamidophenyl)-1-methyl-1H-pyrazol-5-yl)-3-(methylthio)benzamide] | 0.29

Same assay, conditions: Homo sapiens, HCT-116, wild type HCT116; 10-point dose response in triplicate; multiple values = separate independent experiments; read-out: HCT116 IC50 (uM) HCT116 WT

Row | IC50 [µM] | SMILES
3 | 0.77 | Cn1nc(-c2ccc(NC(=O)C3CCCO3)cc2)cc1NC(=O)c1ccccc1 (single isomer, unassigned) [SW394516 (isomer 2)]
4 | 0.12 | Cn1nc(-c2ccc(NC(=O)c3ccccc3Cl)cc2)cc1NC(=O)C1CCCC(NC(=O)OC(C)(C)C)C1 (single isomer, unassigned) [SW394868-isomer 2]
5 | 0.04 | Cn1nc(-c2ccc(NC(=O)c3ccccc3Cl)cc2)cc1NC(=O)[C@H]1CCC[C@@H](N)C1 (single isomer, unassigned) [SW394869-isomer 1]
6 | 0.22 | Cn1nc(-c2ccc(NC(=O)c3ccccc3)cc2)cc1NC(=O)c1ccccc1 [SW106593, N-(4-(5-Benzamido-1-methyl-1H-pyrazol-3-yl)phenyl)benzamide]
7 | 16 | COc1ccc(C(=O)Nc2cc(-c3ccc(NC(=O)OC(C)(C)C)cc3)nn2C)cc1 [SW388709, tert-Butyl-(4-(5-(4-methoxybenzamido)-1-methyl-1H-pyrazol-3-yl)phenyl)carbamate]
8 | 1.09 | COc1cccc(C(=O)Nc2ccc(-c3cc(NC(=O)c4ccccc4)n(C)n3)cc2)c1 [SW388711, N-(4-(5-Benzamido-1-methyl-1H-pyrazol-3-yl)phenyl)-3-methoxybenzamide]
9 | 0.69 | COc1cccc(C(=O)Nc2cc(-c3ccc(NC(=O)OC(C)(C)C)cc3)nn2C)c1 [SW388712, tert-Butyl (4-(5-(3-methoxybenzamido)-1-methyl-1H-pyrazol-3-yl)phenyl)carbamate]
10 | 1.1 | Cn1nc(-c2ccc(NC(=O)OC(C)(C)C)cc2)cc1NC(=O)c1ccccc1 [SW388713, tert-Butyl (4-(5-benzamido-1-methyl-1H-pyrazol-3-yl)phenyl)carbamate]
11 | 16 | Cn1nc(-c2ccc(N)cc2)cc1NC(=O)c1ccccc1 [SW388714, N-(3-(4-Aminophenyl)-1-methyl-1H-pyrazol-5-yl)benzamide]
12 | 19 | COc1ccc(C(=O)Nc2ccc(-c3cc(NC(=O)c4ccccc4)n(C)n3)cc2)cc1 [SW388716, N-(4-(5-Benzamido-1-methyl-1H-pyrazol-3-yl)phenyl)-4-methoxybenzamide]
13 | 2.03 | COc1ccc(C(=O)Nc2cc(-c3ccc(NC(=O)c4ccccc4)cc3)nn2C)cc1 [SW388718, N-(3-(4-Benzamidophenyl)-1-methyl-1H-pyrazol-5-yl)-4-methoxybenzamide]
14 | 0.13 | C#Cc1cccc(C(=O)Nc2cc(-c3ccc(NC(=O)c4ccccc4N=[N+]=[N-])cc3)nn2C)c1 [SW393185, 2-Azido-N-(4-(5-(3-ethynylbenzamido)-1-methyl-1H-pyrazol-3-yl)phenyl)benzamide]
15 | 0.1 | C#CCOc1cccc(C(=O)Nc2cc(-c3ccc(NC(=O)c4ccccc4N=[N+]=[N-])cc3)nn2C)c1 [SW393186, 2-Azido-N-(4-(1-methyl-5-(3-(prop-2-yn-1-yloxy)benzamido)-1H-pyrazol-3-yl)phenyl)benza-mide]
16 | 0.14 | Cn1nc(-c2ccc(NC(=O)c3ccccc3Cl)cc2)cc1NC(=O)c1cccc(C(=O)c2ccccc2)c1 [SW393187, N-(4-(5-(3-benzoylbenzamido)-1-methyl-1H-pyrazol-3-yl)phenyl)-2-chlorobenzamide]
17 | 0.6 | Cn1nc(-c2ccc(NC(=O)c3ccccc3Cl)cc2)cc1NC(=O)c1ccc(C(=O)c2ccccc2)cc1 [SW393188, N-(4-(5-(4-benzoylbenzamido)-1-methyl-1H-pyrazol-3-yl)phenyl)-2-chlorobenzamide]
18 | 0.06 | C#CCOCc1ccccc1C(=O)Nc1ccc(-c2cc(NC(=O)c3ccccc3)n(C)n2)cc1 [SW393189, N-(4-(5-benzamido-1-methyl-1H-pyrazol-3-yl)phenyl)-2-((prop-2-yn-1-yloxy)methyl)benzamide]
19 | 0.37 | C#CCOc1cccc(C(=O)Nc2cc(-c3ccc(NC(=O)c4cc(N=[N+]=[N-])ccc4Cl)cc3)nn2C)c1 [SW393213, 5-Azido-2-chloro-N-(4-(1-methyl-5-(3-(prop-2-yn-1-yloxy)benzamido)-1H-pyrazol-3-yl)phe-nyl)benzamide]

Row | IC50 [µM] | SMILES
20 | 0.57 | CCn1nc(-c2ccc(NC(=O)c3ccccc3Cl)cc2)cc1NC(=O)c1ccccc1 [SW393214, N-(4-(5-Benzamido-1-ethyl-1H-pyrazol-3-yl)phenyl)-2-chlorobenzamide]
21 | 0.62 | O=C(Nc1cc(-c2ccc(NC(=O)c3ccccc3Cl)cc2)nn1Cc1ccccc1)c1ccccc1 [SW393215, N-(4-(5-Benzamido-1-benzyl-1H-pyrazol-3-yl)phenyl)-2-chlorobenzamide]
22 | 0.07 | Cc1c(-c2ccc(NC(=O)c3ccccc3Cl)cc2)nn(C)c1NC(=O)c1ccccc1 [SW393216, N-(4-(5-Benzamido-1,4-dimethyl-1H-pyrazol-3-yl)phenyl)-2-chlorobenzamide]
23 | 0.03 | Cc1ccccc1C(=O)Nc1cc(-c2ccc(NC(=O)c3ccccc3Cl)cc2)nn1C [SW393217, 2-chloro-N-(4-(1-methyl-5-(2-methylbenzamido)-1H-pyrazol-3-yl)phenyl)benzamide]
24 | 0.02 | Cn1nc(-c2ccc(NC(=O)c3ccccc3Cl)cc2)cc1NC(=O)c1ccccc1Br [SW393218, 2-bromo-N-(3-(4-(2-chlorobenzamido)phenyl)-1-methyl-1H-pyrazol-5-yl)benzamide]
25 | 0.04 | Cn1nc(-c2ccc(NC(=O)c3ccccc3F)cc2)cc1NC(=O)c1ccccc1 [SW393241, N-(4-(5-Benzamido-1-methyl-1H-pyrazol-3-yl)phenyl)-2-fluorobenzamide]
26 | 1.35 | C#Cc1cccc(C(=O)Nc2cc(-c3ccc(NC(=O)c4ccc(C5(C(F)(F)F)N=N5)cc4)cc3)nn2C)c1 [SW393242, 3-Ethynyl-N-(1-methyl-3-(4-(4-(3-(trifluoromethyl)-3H-diazirin-3-yl)benzamido)phenyl)-1H-pyrazol-5-yl)benzamide]
27 | 17 | C#Cc1cccc(C(=O)Nc2cc(-c3ccc(NC(=O)c4cccc(C5(C(F)(F)F)N=N5)c4)cc3)nn2C)c1 [SW393243, 3-Ethynyl-N-(1-methyl-3-(4-(3-(3-(trifluoromethyl)-3H-diazirin-3-yl)benzamido)phenyl)-1H-pyrazol-5-yl)benzamide]
28 | ~0.01 | Cn1nc(-c2ccc(NC(=O)c3ccccc3Cl)cc2)cc1NC(=O)c1ccccc1F [SW393244, 2-chloro-N-(4-(5-(2-fluorobenzamido)-1-methyl-1H-pyrazol-3-yl)phenyl)benzamide]
29 | 0.13 | Cn1nc(-c2ccc(NC(=O)c3ccccc3-c3ccccc3)cc2)cc1NC(=O)c1ccccc1 [SW393270, N-(4-(5-benzamido-1-methyl-1H-pyrazol-3-yl)phenyl)-[1,1′-biphenyl]-2-carboxamide]
30 | > 10 | COc1cc(-c2cc(NC(=O)c3ccccc3)n(C)n2)ccc1NC(=O)c1ccccc1Cl [SW393279, N-(4-(5-benzamido-1-methyl-1H-pyrazol-3-yl)-2-methoxyphenyl)-2-chlorobenzamide]
31 | 0.12 | C#CCOCc1ccccc1C(=O)Nc1ccc(-c2cc(NC(=O)c3cccc(N=[N+]=[N-])c3)n(C)n2)cc1 [SW393280, N-(4-(5-(3-azidobenzamido)-1-methyl-1H-pyrazol-3-yl)phenyl)-2-((prop-2-yn-1-yloxy)methyl)benzamide]
32 | 0.19 | Cn1nc(-c2ccc(C(=O)Nc3ccccc3Cl)cc2)cc1NC(=O)c1ccccc1 [SW393293, 4-(5-benzamido-1-methyl-1H-pyrazol-3-yl)-N-(2-chlorophenyl)benzamide]
33 | 0.28 | Cn1nc(-c2ccc(NC(=O)c3ccccc3Cl)cc2Cl)cc1NC(=O)c1ccccc1 [SW393294, N-(4-(5-benzamido-1-methyl-1H-pyrazol-3-yl)-3-chlorophenyl)-2-chlorobenzamide]
34 | 1.9 | O=C(Nc1nc(-c2ccc(NC(=O)c3ccccc3Cl)cc2)cs1)c1ccccc1 [SW393296, N-(4-(2-Benzamidothiazol-4-yl)phenyl)-2-chlorobenzamide]
35 | 0.15 | Cn1nc(-c2ccc(NC(=O)c3ccccc3CN3CCOCC3)cc2)cc1NC(=O)c1ccccc1 [SW393298, N-(4-(5-Benzamido-1-methyl-1H-pyrazol-3-yl)phenyl)-2-(morpholinomethyl)benzamide]

Same assay, conditions: read-out: HCT116 IC50 (uM) HCT116 WT + ISRIB; wild type HCT116, compound plus 10 nM of ISRIB

Row | SMILES | IC50 [µM]
36 | CSc1cccc(C(=O)Nc2cc(-c3ccc(NC(=O)c4ccccc4)cc3)nn2C)c1 [SW389160, N-(3-(4-Benzamidophenyl)-1-methyl-1H-pyrazol-5-yl)-3-(methylthio)benzamide] | 2.48

Same assay, conditions: wild type HCT116; 10-point dose response in triplicate; multiple values = separate independent experiments

Row | HCT116 IC50 (uM) HCT116 WT | SMILES
37 | inactive | Cn1nc(-c2ccc(NC(=O)C3CCCO3)cc2)cc1NC(=O)c1ccccc1 (single isomer, unassigned) [SW394516 (isomer 1)]
38 | inactive | COc1cccc(C(=O)Nc2cc(-c3ccc(N)cc3)nn2C)c1 [SW388715, N-(3-(4-Aminophenyl)-1-methyl-1H-pyrazol-5-yl)-3-methoxybenzamide]
39 | inactive | COc1ccc(C(=O)Nc2cc(-c3ccc(N)cc3)nn2C)cc1 [SW388717, N-(3-(4-Aminophenyl)-1-methyl-1H-pyrazol-5-yl)-4-methoxybenzamide]

Same assay, conditions: wild type HCT116; 10-point dose response in triplicate; multiple values = separate independent experiments; read-out: HCT116 IC50 (uM) HCT116 WT

Row | SMILES | IC50 [µM]
40 | C#CCOc1ccccc1C(=O)Nc1ccc(-c2cc(NC(=O)c3cccc(N=[N+]=[N-])c3)n(C)n2)cc1 [SW393066, N-(4-(5-(3-Azidobenzamido)-1-methyl-1H-pyrazol-3-yl)phenyl)-2-(prop-2-yn-1-yloxy)benza-mide] | 9.4

Same assay, conditions: wild type HCT116; tested simultaneously with GCN2KO and +ISRIB; read-out: HCT116 IC50 (uM) HCT116 WT (repeat)

Row | SMILES | IC50 [µM]
41 | C#CCOc1ccccc1C(=O)Nc1ccc(-c2cc(NC(=O)c3cccc(N=[N+]=[N-])c3)n(C)n2)cc1 [SW393066, N-(4-(5-(3-Azidobenzamido)-1-methyl-1H-pyrazol-3-yl)phenyl)-2-(prop-2-yn-1-yloxy)benza-mide] | 7.18
